# Source: US20090215029A1, “METHODS OF ISOLATING AND PURIFYING NUCLEIC ACID-BINDING BIOMOLECULES AND COMPOSITIONS INCLUDING SAME” (CytoCure, Inc., priority 2007, published 2009)
# Where two headings read alike, the source gives them in different places.
# What was measured:
# [1] = test system: nucleic acids to a bound factor; experiment: Cross-linking / fixative activity: effectiveness in covalently linking nucleic acids to a bound factor; format: biochemical
# Procedure: Several cross-linking fixatives incorporating a nucleic acid binding group covalently coupled with a primary amine-binding group were synthesized. These agents were assayed to determine effectiveness covalently linking nucleic acids to a bound factor.
# whole cells = experiment: Combination crosslinking, first and second agents added to whole cells; format: cell-based; details: combination with second agent EGS (amine binding); both added more or less simultaneously to whole cells, not less than 30 minutes, room temperature to 37 Celsius
# Procedure: Note: For Combination crosslinking experiments, both the First and Second agents are added more or less simultaneously to whole cells (ethidium bromide requires prior membrane permeabilization) for not less than 30 minutes at room temperature to 37 Celsius.
compound,measurement,setting,value
"2,5-dioxopyrrolidin-1-yl-2-(4-(3-methylthioureido)-4-oxobutanoyloxy)ethyl succinate chloro(ethylenediamine)platinum(II) complex",Activity,[1],Some
"C1OC1C1CO1 (stereo not drawn) [1,3 butadiene diepoxide]",Activity as fixative agent,[1],some activity
Cc1oc2c(C)c3oc(=O)cc(C)c3cc2c1CN [4-aminomethyl trioxsalen],Activity,whole cells,Weak
"O=C(CCC(=O)OCCOC(=O)CCC(=O)ON1C(=O)CCC1=O)NC(Cc1ccc(N(CCCl)CCCl)cc1)C(=O)O (stereo not drawn) [A, 3-(4-(bis(2-chloroethyl)amino)phenyl)-2-(4-(2-(4-(2,5-dioxopyrrolidin-1-yloxy)-4-oxobutanoyloxy)ethoxy)-4-oxobutanamido)propanoic acid]",Activity,[1],Strong
"CC[n+]1c(-c2ccccc2)c2cc(N=[N+]=[N-])ccc2c2ccc(NC(=O)CCC(=O)OCCOC(=O)CCC(=O)ON3C(=O)CCC3=O)cc21.[Br-] [B, 8-azido-3-(4-(2-(4-(2,5-dioxopyrrolidin-1-yloxy)-4-oxobutanoyloxy)ethoxy)-4-oxobutanamido)-5-ethyl-6-phenylphenanthridinium bromide]",Activity,[1]; synthesized compounds: DNA-binding moiety coupled with NHS ester protein-binding moiety,Strong
N.N.[Cl][Pt][Cl] [Cisplatin],Activity,whole cells,Strong
"CC[n+]1c(-c2ccccc2)c2cc(N=[N+]=[N-])ccc2c2ccc(N)cc21.[Br-] [Ethidium bromide monoazide, 3-Amino-8-azido-5-ethyl-6-phenylphenanthridinium bromide]",Activity,whole cells,Strong
O=CCCCC=O [glutaraldehyde],Activity as fixative agent,[1]; additional fixative agents,some activity
O=CC=O [glyoxal],Activity as fixative agent,[1],some activity
